Laboratory results from patent publication US10058586B2, “Use of human small leucine zipper protein in adipocyte differentiation procedure” (Korea University Research and Business Foundation, priority 2013, dated 2018).
d = 2'-deoxy (DNA)

Target: T1, PPARγ2 (Homo sapiens, UniProt P37231)
T1 sequence (P37231 1-505): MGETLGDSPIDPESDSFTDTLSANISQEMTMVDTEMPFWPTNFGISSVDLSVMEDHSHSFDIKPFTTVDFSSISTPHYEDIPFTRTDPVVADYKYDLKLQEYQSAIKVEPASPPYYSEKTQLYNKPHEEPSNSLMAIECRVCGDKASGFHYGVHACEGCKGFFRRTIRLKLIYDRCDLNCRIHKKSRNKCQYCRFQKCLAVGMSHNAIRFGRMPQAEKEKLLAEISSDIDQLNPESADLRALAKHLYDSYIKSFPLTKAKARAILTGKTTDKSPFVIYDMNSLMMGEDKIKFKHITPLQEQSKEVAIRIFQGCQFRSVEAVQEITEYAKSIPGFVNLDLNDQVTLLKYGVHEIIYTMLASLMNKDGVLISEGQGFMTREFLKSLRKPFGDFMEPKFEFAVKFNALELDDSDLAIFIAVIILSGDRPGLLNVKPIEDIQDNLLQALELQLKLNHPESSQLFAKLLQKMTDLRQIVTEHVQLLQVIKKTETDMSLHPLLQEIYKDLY
Assay: Luciferase reporter gene analysis (FABP4-Luc) of PPARγ2 transcriptional activity in 293T cells
Assay type: cell-based
Parameters: expressed in transfected cells; host or cells: 293T cells
Conditions: for sLZIP-mediated PPARγ2 transcriptional activity (luciferase): 293T cells expressing sLZIP, 100 nM si-RNAs, with or without 10 nM RZD
Procedure: C3H10T1/2 and 293T cells were plated in a 12-well culture dish at a density of 2×10^5 cells/well and incubated for 24 hours. Then, according to instructions of the manufacturer, the cells were transfected with a 0.2 μg of reporter genes and 0.1 to 0.5 μg of a laboratory plasmid using Lipofectamine 2000 or Genefectine. After 24 hours, the cells were cultured in a serum-free DMEM with or without 10 nM of rosiglitazone. siRNAs were prepared using sLZIP and HDAC target sequences (Table 1). For an RNA interference experiment, according to instructions of the manufacturer, the cells were transfected with scrambled control group RNA and appropriate siRNAs using Lipofectamine 2000. Human MSC and C3H10T/1/2 cells were infected with an adenovirus vector containing cDNA of human sLZIP or an empty vector. The infected medium was exchanged with a fresh medium after two hours.
Appropriately transfected cells were washed with cold PBS twice, and a reporter lysis buffer (Promega) was used and lysed in a culture dish. Luciferase analysis was performed using a luciferase analysis system (Promega Corporation, Madison, Wis.). A luciferase activity was recorded in Luminometer 20/20^n (Turner BioSystems, Sunnyvale, Calif.) according to instructions of the manufacturer. The luciferase activity was normalized to a β-galactosidase activity. For β-galactosidase analysis, CMV-β-galactosidase was transfected with luciferase reporter genes. All pieces of data were represented as mean±standard deviation of the results from at least three independent experiments.
In order to examine an effect of sLZIP on the transcriptional activity of PPARγ2, 293T cells were temporarily transfected with PPARγ2 (0.5 μg), β-galactosidase (0.1 μg), FABP4-Luc reporter genes (0.2 μg) and sLZIP at different contents (0.1 to 0.5 μg). After the transfection, the cells were stimulated with or without 10 nM of rosiglitazone (RZD) (FIG. 1A), pioglitazone (PZD) (FIG. 1B), and troglitazone (TZD) (FIG. 1C). A relative luciferase activity was analyzed with or without cell ligand treatment 24 hours after transfection. Also, the 293T cells were transiently transfected with si-sLZIP at different contents (50 and 100 nM), and the cells were treated or not treated with RZD (FIG. 1D). FABP4-Luc stable C3H10T1/2 cells were infected with a sLZIP-expressing adenovirus, and then differentiated into adipocytes for 4 days (FIG. 1E). A luciferase activity was normalized to a β-galactosidase activity and represented as a relative activity (fold change). All experiments were repeated three times, and bars in the graph represent mean±standard deviation. *, P<0.05; **, P<0.01
For this purpose, 293T cells were transiently transfected with PPARγ2 (0.5 μg), (3-galactosidase (0.1 μg), FABP4-Luc reporter genes (0.2 μg) and sLZIP (0.1 μg). After the transfection, the cells were stimulated with or without 10 nM of RZD and 10 nM of TSA (FIG. 4A). A promoter activity was measured according to luciferase analysis. In the 293T cells, FABP4-Luc reporter genes, sLZIP, PPAR, β-galactosidase, and 100 nM of si-RNAs and HDAC1, 2, 3 and 8 for a control group were expressed. After the transfection, the cells were stimulated with or without 10 nM of RZD, and a promoter activity was measured (FIG. 4B). 293T cells were temporarily transfected with FABP4-Luc reporter genes, PPARγ2, β-galactosidase, HDAC3 (0.5 μg) and sLZIP (0.1 μg). After the transfection, the cells were stimulated with or without 10 nM of RZD, and luciferase analysis was performed (FIG. 4C). A luciferase activity was normalized to a β-galactosidase activity and represented as a relative intensity (fold change). All experiments were repeated three times, and bars in the graph represent mean±standard deviation. GFP-sLZIP expression constructs were expressed in C3H10T1/2 cells, rabbit anti-HDAC3 antibodies and Texas Red-labeled anti-rabbit antibodies were used and analysis was performed under a fluorescence microscope. The nucleus was stained with DAPI (FIG. 4D). […]

Q: How did the “sLZIP-mediated PPARγ2 transcriptional activity (luciferase)” value turn out when “siRNA for HDAC2: siRNA with HDAC2 target sequence, SEQ ID NO: 9 and 10 (chain 1 GGUCAAUAAGACCAGAUAA; chain 2 UUAUCUGGUCUUAUUGACCG; RNA, 3' dTdT, backbone not given here) [reference compound]” was run?
A: not involved in sLZIP-mediated PPARγ2 regulation

Q: With “siRNA for HDAC8: siRNA with HDAC8 target sequence, SEQ ID NO: 13 and 14 (chain 1 CAUUCAGGAUGGCAUACAA; chain 2 UUGUAUGCCAUCCUGAAUGGG; RNA, 3' dTdT, backbone not given here) [reference compound]” as the substance, how does the “sLZIP-mediated PPARγ2 transcriptional activity (luciferase)” value read?
A: not involved in sLZIP-mediated PPARγ2 regulation

Q: With “si-sLZIP: siRNA for sLZIP, SEQ ID NO: 5 and 6 (+dTdT) (chain 1 GGACCCAGAUGACUCCACAGCAUAU; chain 2 AUAUGCUGUGGAGUCAUCUGGGUCC; RNA, 3' dTdT, backbone not given here) [reference compound]” as the substance, how does the “transcriptional activity of PPARγ2 (relative luciferase activity)” value (293T cells, si-sLZIP 50 and 100 nM, treated or not treated with RZD) read?
A: increased the transcriptional activity of PPARγ2

Q: Which “sLZIP-mediated PPARγ2 transcriptional activity (luciferase)” value does the source give for “siRNA for HDAC3: siRNA with HDAC3 target sequence, SEQ ID NO: 11 and 12, used to knock down HDAC3 (chain 1 GCCGGUUAUCAACCAGGUA; chain 2 UACCUGGUUGAUAACCGGC; RNA, 3' dTdT, backbone not given here) [reference compound]” here?
A: significantly increased

Q: “siRNA for HDAC1: siRNA with HDAC1 target sequence, SEQ ID NO: 7 and 8 (chain 1 CGACUGUUUGAGAACCUUA; chain 2 UAAGGUUCUCAAACAGUCGCU; RNA, 3' dTdT, backbone not given here) [reference compound]” was tested. Which “sLZIP-mediated PPARγ2 transcriptional activity (luciferase)” value did it give?
A: not involved in sLZIP-mediated PPARγ2 regulation
